The melting point is the temperature, or range, at which the solid turns liquid. In turn, `COc1ccc(S(=O)(=O)Nc2ccccc2NC(=O)c2cccnc2C)cc1` came in with a melting point of 148 to 149 °C.
For `CCCOc1ccccc1C1=NC(=O)C2=NC(C(F)(F)F)=NC2=N1` the value was 255 to 260 °C; for `Cc1nc(C(Br)Br)nc(C(Br)Br)n1`, 87 to 88.5 °C; for `CCn1cc(C(=O)O)c(=O)c2cc(F)c(N3Cc4ccc(N)cc4C3)cc21`, > 300 °C.
For `CC(C)CCCC(C)NC1=NS(=O)(=O)c2cc(Cl)ccc2N1` (centres undefined), the melting point is > 220 °C.
For `Cn1ncnc1/C=C/c1ccccc1` the value was 67 to 70 °C; for `O=C1c2cccc3cccc(c23)C(=O)N1CCN1CCC(c2c[nH]c3ccc(F)cc23)CC1`, 235 °C.
`CC(C)Oc1ccc(-n2c(-c3ccc(C(=O)O)cc3)c(C(=O)O)c3cc(Oc4ccc(Cl)cc4)ccc32)cc1` came in with a melting point of 217 to 222 °C.
Compound `CCOc1nc(C)nc(N2CCN(c3ccc(F)cc3)CC2)c1[N+](=O)[O-]` returned a melting point of 116 to 119 °C.
In turn, `C#CCONC(=O)c1nc(-c2ccc(Cl)c(OC)c2F)cc(N)c1Cl` gave a melting point of 180 to 183 °C.
On to `CN(Cc1ccc(CCn2cnc3cc(-c4ccc(Cl)cc4)sc3c2=O)cc1)C(=O)C1CC1`, for which the melting point turned out to be 178 °C.
With `Clc1ccc2c(NCC=CCNc3ccnc4cc(Cl)ccc34)ccnc2c1` the figure was > 250 °C; with `COc1ccc2[nH]cc(S(=O)(=O)c3ccccc3)c2n1`, 223 to 225 °C; with `COC(=O)c1ccc(-c2nc(-c3ccc(C(C)(C)C)cc3)cs2)cc1`, 154 to 155 °C.
As for `O=C(CCCCCBr)N1Cc2ccccc2C1`, the melting point worked out at 88 °C.
As to `CCn1cc(C(=O)O)c(=O)c2c(F)c(F)c(N3CCCC3)c(F)c21`, the melting point was > 320 °C.
With `O=C(Nc1ccc(S(=O)(=O)c2ccc([N+](=O)[O-])cc2)cc1)N[C@@H](Cc1ccc(NC(=O)c2c(Cl)cccc2Cl)cc1)C(=O)O` the figure was 223 °C; with `COC(=O)c1ccc(OCC(O)CNC(C)(C)C)cc1` (centres undefined), 88 to 89 °C; with `O=Cc1cnccc1Cl`, 53 to 54 °C.
With `O=C(c1cccs1)N(CCCCn1ccnc1)C1=Nc2cccc3cccc1c23` the figure was 76 to 80 °C; with `CN(C=C(S(=O)(=O)c1ccccc1)S(=O)(=O)c1ccccc1)c1ccc(Cl)cn1`, 205 to 206 °C; with `O=C1c2ccccc2C(=O)N1CC1CC1c1cccc2nnsc12` (centres undefined), 123 to 125 °C.
With `O=[N+]([O-])c1cccc2c1c([N+](=O)[O-])cc1nc(O)c(O)nc12` the figure was > 300 °C; with `CC(=O)Nc1nc(-c2ccc(S(=O)(=O)CCO)cc2)cs1`, 258 to 260 °C; with `CCN(Cc1ccccc1)C(=O)Cc1c(-c2ccc(Cl)cc2)nc2cc(C)ccn12`, 192 to 193 °C.
`COc1ccc(-c2[nH]cnc2-c2cc(OC)c(O)c(OC)c2)cc1N`: the melting point lay in the range of 148 to 150 °C.
With `[N-]=[N+]=NCC1OC(n2cc(C=CBr)c(=O)[nH]c2=O)CC1Cl` (centres undefined) the figure was 58 to 60 °C; with `N[C@@H](C[C@@H](CC#Cc1ccccc1)C(=O)O)C(=O)O`, 164 to 166 °C.
With `CC(=O)NC[C@H]1CN(c2cc(F)c(N3CCC(n4nnc(N5CCN(Cc6ccccc6)CC5)n4)CC3)c(F)c2)C(=O)O1` the figure was 188 to 190 °C; with `O=C(NCCO)C(=O)NCCO`, 166 to 169 °C; with `Cc1ccc(N(c2ccc(C)cc2)c2ccc(-c3ccc(-c4ccc(N(c5ccc(C)cc5)c5ccc(C)cc5)cc4)cc3)cc2)cc1`, 232 to 234 °C.
As to `CN1CCN(c2cccc3ccc(NC(=O)c4ccc(O)cc4)cc23)CC1`, the melting point is 156 to 160 °C.
The compound `COc1ccc(-c2nc(-c3cccnc3)c(C)n2C)c(OC)c1` showed a melting point of 129 to 131 °C.
For `N#CCC(=O)Nc1cc(Cl)c(Cl)cc1[N+](=O)[O-]` the value was 156 to 158 °C.
For `O=C1NC[C@H]2CCC[C@H]2O1` (relative stereo) the value was 56 to 58 °C; for `CCCCc1nc2c(N)nc3ccccc3c2n1CCCCNS(C)(=O)=O`, 195 to 196 °C; for `CCOC(=O)c1ccccc1COc1ccc(C=O)cc1`, 60 to 62 °C.
For `CN1CCN(c2ccc(Nc3nc(N)c(C(=O)c4c(Cl)cc(C(F)(F)F)cc4Cl)s3)cc2)CC1` the value was 239 to 240 °C; for `COC(=O)C1NC(c2ccc(Cl)cc2)C/C(=N\OS(C)(=O)=O)C1(Cl)Cl` (centres undefined), 60 to 62 °C.
For the compound `NCc1cccc(-n2cnc3cnc4ccc(Cl)cc4c32)c1`, the melting point fell in the range of 148 to 149 °C.
For `CCOC(=O)NS(=O)(=O)c1cc(C(C)=O)ccc1Cl` the value was 106 °C; for `Cc1ccc(CCCc2c(C)nc(N)nc2N)cc1`, 210 to 213 °C.
The compound `COC(=O)c1cc(Cl)c2c(c1OC)CCN2C(C)=O` displayed a melting point of 107 to 109 °C.
For `COc1ccc2cc([C@H](C)C(=O)Oc3ccc(OCCO[N+](=O)[O-])cc3)ccc2c1` the value was 141 to 142 °C; for `CCOC(=O)C(SC)=C(O)C1C(C(=O)O)C1(C)C` (centres undefined), 114 °C; for `O=C1CCC(=O)N1Cc1cccc(Nc2n[nH]c3ncnc(Nc4cccc(Cl)c4)c23)c1`, 140 to 142 °C.
For `O=C(NC(Cc1ccc(OCc2ccccc2)cc1)C(=O)O)c1cn2nc(SCc3ccccc3)ccc2n1` (centres undefined) the value was 178 to 179 °C; for `NS(=O)(=O)c1ccc(-c2cccc(-c3nc(-c4ccc(Cl)c(Cl)c4)cc(C(F)(F)F)n3)c2)s1`, 203 °C.
For `Clc1cc(C#Cc2nccs2)c2oc(Cc3ccccc3Cl)nc2c1` the value was 149 to 151 °C; for `CC(C)(CCl)C(=O)NO`, 148 to 151 °C; for `CC(C)(C)OC(=O)c1ncn2c1[C@@H]1CCN1C(=O)c1c(I)cccc1-2`, 249 to 250 °C.
The compound `O=[N+]([O-])c1cc(Cc2cc(Cl)ccc2O)c(O)c(Cc2cc(Cl)ccc2O)c1` returned a melting point of 220 °C.
With `Oc1ccc2c(c1)CCCC(c1ccccc1)=C2c1ccc(OCCCCCSCCCC(F)(F)F)cc1` the figure was 168 °C; with `CCCc1c(O)ccc2c(=O)cc(/C=C/C(=O)OCC)oc12`, 203 to 204 °C.
With `CN(C)CCCOc1cccc(CC(=O)c2cccc(OCCCN(C)C)c2)c1` the figure was 102 to 105 °C; with `C=CCNC(=O)N1CC(Oc2cccc(Cl)c2)C1`, 87 to 89 °C.
Regarding `CCCN(Cc1ccc(-c2ccccc2-c2nnnn2C(c2ccccc2)(c2ccccc2)c2ccccc2)cc1)c1nc(C)cnc1C(=O)OCC`, the melting point fell in the range of 110 to 112 °C.
For `CC1(C)C(N)CN1c1nc2c(cc1F)c(=O)c(C(=O)O)cn2C1CC1` (centres undefined) the value was 190 to 195 °C; for `O=C(Nc1ccc2cc(CN3CCCC3)ccc2c1)N1CCC(c2ccccc2)CC1`, 193 to 195 °C.
For `Cc1c(COC(=O)N(c2ccccc2)c2ccccc2)cccc1OCC(=O)O` the value was 180 to 181 °C; for `Cc1nc(-c2ccc(OCc3ccncc3)cc2)no1`, 132 to 133 °C; for `S=c1c2ccc(Cl)cc2nc2n1CCCCC2`, 99 to 101 °C.
For `CCC(O)(CC)[C@H](C[C@H](O)[C@H](CC1CCCCC1)NC(=O)[C@H](Cc1cscn1)NC(=O)OC(C)(C)C)C(=O)NC` the value was 165 to 168 °C.
In the case of `Cc1ccc(C(C)n2[nH]c(C)cc2=O)cc1` (centres undefined), the melting point fell in the range of 144 to 146 °C.
Turning to `CCOC(=O)CN1C(=O)C2=C(c3ccccc3)N(CC(=O)OCC)C(=O)C2=C1c1ccccc1`, the melting point lay within 204 to 208 °C.
With `C=CCc1c(Cl)cc2c(c1O)OC(COS(=O)(=O)c1ccc(C)cc1)C2` (centres undefined) the figure was 128 to 131 °C; with `O=C(c1cccs1)c1cnn2c(-c3cccc(-c4nnn(Cc5ccncc5)n4)c3)ccnc12`, 170 °C; with `COc1ccc(O)c2c1C1(CCC2)OCCO1`, 139 to 140 °C.
For `CC(=O)OC1CSC(Oc2ccc(C(=O)NCc3ccccc3)nc2)C(OC(C)=O)C1OC(C)=O` (centres undefined) the value was 177 to 178 °C; for `N#Cc1ccccc1OCCCN1CCC(C(c2ccc(F)cc2)c2ccc(F)cc2)CC1`, 88.5 to 90 °C; for `COc1cc(C2COc3c(C)c(C)c(NC(=O)CC(C)(C)C)c(C)c32)ccc1C(C)C` (centres undefined), 170 to 171 °C.
With `CCOC(=O)NNC(=O)Cc1noc(C)n1` the figure was 122 to 124 °C; with `COC(=O)C(Cc1ccc(OCCn2ccc3ccc(C(=O)C4CC4)nc32)cc1)OCC(F)(F)F` (centres undefined), 123 °C.
`Cc1ccc(S(=O)(=O)ON=C(C#N)c2ccc(F)cc2)cc1`: the melting point is 129 to 140 °C.
With `CC(=O)NCC1CN(c2ccc(N3CCN(c4nc5cccc(F)c5o4)CC3)c(F)c2)C(=O)O1` (centres undefined) the figure was 201 to 202 °C; with `CC(C)NC1=NS(=O)(=O)c2ccc(C(F)(F)F)cc2N1`, 294 to 297 °C.
For `C=C(C)c1cnc(C2=NC(C)(C(C)C)C(=O)N2)c(C(=O)OC)c1` (centres undefined) the value was 90.5 to 92.5 °C.
With `O=C(NO)c1cnc(NS(=O)(=O)c2ccc(C(=O)Nc3ccc(Cl)c(-c4ccccn4)c3)c(Cl)c2)nc1` the figure was 215 to 220 °C; with `CCN1C(=O)C(C)(C)C(=O)N(C)c2cc(CCCN(CCn3ccc4occc4c3=O)Cc3cccnc3C)ccc21`, 151 to 155 °C.
In the case of `C[C@H]1CN(c2c(F)cc3c(=O)c(C(=O)O)cn4c3c2CCN4C)C[C@H]1NC(=O)CNC(=O)OC(C)(C)C` (relative stereo), the melting point lay in the range of 142 to 145 °C.
With `CCOC(=O)Oc1ccc(C=CC(=O)NC2CCCNC(=O)C2)cc1` (centres undefined) the figure was 209 to 210 °C; with `COC(=O)[C@H]1CC[C@H](c2[nH]nc3c2C(=O)c2c(NC(=O)NN4CCOCC4)cccc2-3)CC1`, 259 to 261 °C.
As for `O=C(CCCN1CCOCC1)c1ccc2c(c1)C(=O)c1cc(C(=O)CCCN3CCOCC3)ccc1-2`, the melting point lay in the range of 174 to 176 °C.
`CCC1CC2=CC(=O)CCC2C2CCC3(C)C(O)CCC3C12` (centres undefined) had a melting point of 142 to 144 °C.
